Consider four molecules from patent US12416034B2, “Recombinant production of steviol glycosides” (EVOLVA SA, priority 2011, dated 2025).

A short description of series [1]: In vitro assay of lysates of EUGT11-expressing cells after permeabilization treatment. Format: biochemical, S. cerevisiae. The settings on record: lysates of EUGT11 transformants, untreated or after LiAC/PEG, Triton X100 or LS treatment. Here is the method: Experiments were done to establish conditions for permeabilization in E. coli and in yeast. Growing cells (S. cerevisiae or E. coli) were treated with different concentrations/combinations of permeabilization agents: toluene, chloroform and ethanol for permeabilization of S. cerevisiae, and guanidine, lactic acid, DMSO and/or Triton X-100 for permeabilization of E. coli. Tolerance of both model organisms to high concentrations of RebA and other potential substrates also was evaluated. The permeabilization was measured by the amount of RebD produced from a EUGT11-expressing organism after incubation in a RebA containing medium (feeding experiment). Enzyme activity was monitored before and after exposure to the permeabilizing agents by lysing the cells and analyzing the activity of the released UGTs in an in vitro assay.
Treatment with Triton X-100 0.3% or 0.5%, however, increased the amount of RebD above background levels (see FIG. 18) while sustaining the activity of EUGT11. For Triton X-100 assays, overnight cultures were washed three times in PBS buffer. Cells corresponding to 6 OD600 units were resuspended in PBS containing 0.3% or 0.5% Triton X-100 respectively. […]
Lysates from transformants expressing EUGT11 were able to convert some RebA into RebD (8 to 50 μM were measured in the reactions) when cells were untreated or after treatment with LiAC/PEG or Triton X100.

A short description of series [2]: UDP-glucose regenerating activity of sucrose synthase. The series is classed as biochemical. The settings on record: 1 mM UDP, ~200 mM sucrose, 37° C., 24 h. Here is the method:
Experiments were performed to evaluate the UDP-glucose regenerating activity of the purified GST-AtSUS1 and GST-SrSUS1. In vitro assays were conducted in 100 mM Tris-HCl pH=7.5 and 1 mM UDP (final concentration). Either ˜2.4 μg of purified GST-AtSUS1, ˜0.15 μg of GST-SrSUS1, or ˜1.5 μg commercial BSA (New England Biolabs, Ipswich, MA) were also added. Reactions were done in presence or absence of ˜200 mM sucrose and incubated at 37° C. for 24 h. Product UDP-glucose was measured by HPLC as described in the analytical section. AtSUS1 produced ˜0.8 mM UDP-glucose when sucrose was present. […] The lack of activity observed for SrSUS1 could be explained by the poor quality and concentration of the purified enzyme. UDP-glucose production by AtSUS1 was sucrose dependent and, therefore, it was concluded that AtSUS1 can be used in a coupled reaction to regenerate the UDP-glucose used by EUGT1 or other UGTs for small molecule glycosylation (FIG. 11, above).

Series [3] can be described thus: Coupled AtSUS/EUGT11 reaction, RebD formation. The series is classed as biochemical. As to conditions: ~200 mM sucrose, 1 mM UDP, 100 μM RebA, GST-AtSUS1 and GST-EUGT11. Here is the method: SUS catalyzes the formation of UDP-glucose and fructose from sucrose and from UDP as depicted in FIG. 11. This UDP-glucose then can be used by EUGT11 for glycosylation of RebA to produce RebD. In vitro assays as described above were performed, adding ˜200 mM sucrose, 1 mM UDP, 100 μM RebA, ˜1.6 μg purified GST-AtSUS1 and ˜0.8 μg GST-EUGT11. Formation of product, RebD, was evaluated by LC-MS. When AtSUS, EUGT11, sucrose and UDP were mixed with RebA, 81±5 μM of RebD was formed. The reaction was dependent on the presence of AtSUS, EUGT11 and sucrose. The conversion rate was similar to what has been observed previously using UDP-glucose provided extraneously.

In the next series the test system is ERG9. Put plainly: Amorphadiene production (indirect FPP accumulation), GC-MS. The settings on record: 72 h, construct in front of ERG9. The series is classed as cell-based, S. cerevisiae. The source says:
DNA fragments encompassing an ERG9 promoter upstream sequence (for homologous recombination), an expression cassette for the gene (NatR) that confers resistance to Nourseothricin, a CYC1 promoter (SEQ ID NO: 185, FIG. 21), a 5′ UTR sequence with a stemloop structure, and an ERG9 ORF sequence (for homologous recombination) were generated by PCR. DNA fragments that contained either the CYC1 promoter or the KEX2 promoter (SEQ ID NO: 186) but no stemloops were also generated as controls. The flanking ERG9 sequences for recombination as well as the stemloop structure were introduced via the PCR oligos. The DNA fragments were transformed into an S. cerevisiae host strain that subsequently was selected on nourseothricin containing growth plates. […]
The Amorpha-4,11-diene Synthase (ADS) gene catalyzes the chemical reaction that turns one FPP molecule into Amorpha-4,11-diene in the plant Artemisia annua. […] Amorpha-4,11-diene production was measured and compared to the standard compound caryophyllene, as described by (Ro et al. 2006. Nature 440(7086):940-943; Paradise et al. Biotechnol Bioeng. 2008 Jun. 1; 100(2):371-8; Newman et al. Biotechnol Bioeng 95(4):684-691).
Engineered yeast strains were grown in SC 2% glucose with uracil dropped out. […] 10 μl of the dodecane layer was sampled and diluted 100 fold in ethyl acetate for quantification by GC-MS […]

For series [4], the system named is Saccharomyces cerevisiae EFSC1923. Put plainly: Steviol 19-O-monoside production in EFSC1923 with plasmid-expressed enzymes. As to conditions: shake flask, co-expressed with KAH-3. The series is classed as cell-based. Here is the method: The 150 nucleotides at the 5′ end of the Zea mays CDP synthase coding sequence in Table 15 (SEQ ID NO:157, see FIG. 14) was deleted, the remainder of the coding sequence was provided with a new translation start ATG, and the truncated sequence was operably linked to the GPD1 promoter in the multicopy plasmid p423GPD in Saccharomyces cerevisiae EFSC1923. Plasmid p423GPD is described in Mumberg, D et al, Gene, 156: 119-122(1995). EFSC1923 and EFSC1923 plus p423GPD-Z.m.tCDPS were grown in for 96 hours in selective yeast medium containing 4% glucose. The amount of steviol 19-O-monoside produced by EFSC1923+p423GPD-Z.m.tCDPS (the truncated Zea mays CDPS) under these conditions was approximately 2.5 fold more than that produced by EFSC1923 without the plasmid.
The Arabidopsis thaliana KAH coding sequence from Table 15 was inserted in a multicopy plasmid designated p426GPD, under the control of the GPD1 promoter. Plasmid p426GPD is described in Mumberg, D et al, Gene. 156: 119-122(1995).
EFSC1923 was transformed with both p423GPD-Z.m.tCDPS and p426 p426GPD-A.t.KAH.
A bifunctional CDPS-KS from Gibberella fujikuroi (NCBI Accession no: Q9UVY5.1, FIG. 15) was cloned and compared to the truncated CDPS-5. […]

In the case of `CCCCCCCCCCCCN(C)CC(=O)O` [LS, N-lauryl sarcosine], in series [1], the “RebD measured in reactions of lysates” value is reported as “no RebD was measured”.
In turn, “AtSUS1: A. thaliana SUS1 sucrose synthase” yielded a UDP-glucose produced in series [2] of roughly 0.8 mM. Further, the RebD formed in series [3] is 81 ± 5 µM.
Consider “SEQ ID NO: 181: heterologous insert TGAATTCGTTAACGAATTC behind the CYC1 promoter in front of ERG9 (expressed or natural sequence)”, for which, in the series on ERG9, the “increased production of amorphadiene” value worked out at 2.5 ×.

B1: bifunctional CDPS-KS: bifunctional CDPS-KS from Gibberella fujikuroi, NCBI Accession no Q9UVY5.1 (protein, listed as Gibberella fujikuroi)
chain: MPGKIENGTPKDLKTGNDFVSAAKSLLDRAFKSHHSYYGLCSTSCQVYDTAWVAMIPKTRDNVKQWLFPECFHYLLKTQAADGSWGSLPTTQTAGILDTASAVLALLCHAQEPLQILDVSPDEMGLRIEHGVTSLKRQLAVWNDVEDTNHIGVEFIIPALLSMLEKELDVPSFEFPCRSILERMHGEKLGHFDLEQVYGKPSSLLHSLEAFLGKLDFDRLSHHLYHGSMMASPSSTAAYLIGATKWDDEAEDYLRHVMRNGAGHGNGGISGTFPTTHFECSWIIATLLKVGFTLKQIDGDGLRGLSTILLEALRDENGVIGFAPRTADVDDTAKALLALSLVNQPVSPDIMIKVFEGKDHFTTFGSERDPSLTSNLHVLLSLLKQSNLSQYHPQILKTTLFTCRWWWGSDHCVKDKWNLSHLYPTMLLVEAFTEVLHLIDGGELSSLFDESFKCKIGLSIFQAVLRIILTQDNDGSWRGYREQTCYAILALVQARHVCFFTHMVDRLQSCVDRGFSWLKSCSFHSQDLTWTSKTAYEVGFVAEAYKLAALQSASLEVPAATIGHSVTSAVPSSDLEKYMRLVRKTALFSPLDEWGLMASIIESSFFVPLLQAQRVEIYPRDNIKVDEDKYLSIIPFTWVGCNNRSRTFASNRWLYDMMYLSLLGYQTDEYMEAVAGPVFGDVSLLHQTIDKVIDNTMGNLARANGTVHSGNGHQHESPNIGQVEDTLTRFTNSVLNHKDVLNSSSSDQDTLRREFRTFMHAHITQIEDNSRFSKQASSDAFSSPEQSYFQWVNSTGGSHVACAYSFAFSNCLMSANLLQGKDAFPSGTQKYLISSVMRHATNMCRMYNDFGSIARDNAERNVNSIHFPEFTLCNGTSQNLDERKERLLKIATYEQGYLDRALEALERQSRDDAGDRAGSKDMRKLKIVKLFCDVTDLYDQLYVIKDLSSSMK
B1: the “activity in producing steviol 19-O-monoside relative to EFSC1923 with the KAH-3 alone” value in series [4] is “about 5.8 times”.
